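Briefly, cells in 96-well plates were exposed to five compound concentrations for 48 h, and endpoints were estimated by linear interpolation. GI50 is the concentration that inhibits growth by half.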 Activity calls are given as the source filed them. Cut-off read from the data, not from the text of the source: active = GI50 up to about 1.1 µM and inactive = higher.
Legend:
Assay in all cases: growth of human tumour cells (NCI), 48 h
ACHN = tested on: ACHN
NCI-H226 = tested on: NCI-H226
UO-31 = tested on: UO-31
SF-539 = tested on: SF-539
SF-295 = tested on: SF-295
MOLT-4 = tested on: MOLT-4
UACC-257 = tested on: UACC-257
SNB-75 = tested on: SNB-75
SN12C = tested on: SN12C
HOP-92 = tested on: HOP-92
786-0 = tested on: 786-0
NCI/ADR-RES = tested on: NCI/ADR-RES
MDA-MB-231 = tested on: MDA-MB-231
SK-OV-3 = tested on: SK-OV-3
NCI-H23 = tested on: NCI-H23
U-251 = tested on: U-251
DU-145 = tested on: DU-145
SK-MEL-2 = tested on: SK-MEL-2
NCI-H522 = tested on: NCI-H522
A498 = tested on: A498

Measured: GI50

CN(C)c1ccc(/N=N\c2cccc3ncccc23)cc1
inactive: ACHN 35.6 µM | NCI-H226 > 72.3 µM | UO-31 8.53 µM | SF-539 > 100 µM | SF-295 > 78 µM | MOLT-4 26.2 µM | UACC-257 > 100 µM | SNB-75 36.6 µM | SN12C 99.8 µM | HOP-92 36.9 µM | 786-0 > 80.4 µM | NCI/ADR-RES 49 µM | MDA-MB-231 41.1 µM | SK-OV-3 > 100 µM | NCI-H23 > 100 µM | U-251 > 74.1 µM | DU-145 75.7 µM | SK-MEL-2 > 100 µM | NCI-H522 20.8 µM

CCOC(=O)C1=C(C)NC(C)=C(C(=O)OCC)C1c1ccc(C)cc1
inactive: ACHN 43 µM | NCI-H226 35 µM | UO-31 51.1 µM | SF-539 37.1 µM | SF-295 27.4 µM | MOLT-4 25.9 µM | UACC-257 44.9 µM | A498 40.6 µM | SNB-75 24.8 µM | SN12C 22.1 µM | HOP-92 13.1 µM | 786-0 20 µM | MDA-MB-231 29.4 µM | SK-OV-3 57 µM | NCI-H23 34.5 µM | U-251 46.9 µM | DU-145 71.9 µM | SK-MEL-2 39.8 µM | NCI-H522 32.4 µM

COC1(OC)c2occc2C(=N)c2ccc(=O)oc21
inactive: ACHN 92.3 µM | NCI-H226 > 100 µM | UO-31 > 100 µM | SF-539 41.9 µM | SF-295 > 100 µM | MOLT-4 > 100 µM | UACC-257 > 100 µM | A498 > 100 µM | SN12C > 100 µM | HOP-92 > 100 µM | 786-0 > 100 µM | MDA-MB-231 > 100 µM | SK-OV-3 > 100 µM | NCI-H23 > 100 µM | U-251 > 100 µM | DU-145 > 100 µM | SK-MEL-2 > 100 µM | NCI-H522 > 100 µM

Cn1c(=O)oc2cc(C(=O)CN3CCN(Cc4ccc5c(c4)OCO5)CC3)c(Cl)cc21
inactive: ACHN > 100 µM | UO-31 94 µM | SF-539 > 100 µM | SF-295 > 100 µM | MOLT-4 > 100 µM | SNB-75 > 100 µM | SN12C > 100 µM | 786-0 > 100 µM | NCI/ADR-RES > 100 µM | MDA-MB-231 > 100 µM | SK-OV-3 > 100 µM | NCI-H23 > 100 µM | U-251 > 100 µM | DU-145 > 100 µM | SK-MEL-2 > 100 µM

O=C(/C=C/c1ccc(O)c([N+](=O)[O-])c1)CC(=O)/C=C/c1ccc(O)c([N+](=O)[O-])c1
inactive: ACHN > 100 µM | NCI-H226 > 100 µM | UO-31 > 100 µM | SF-539 > 100 µM | SF-295 62.5 µM | UACC-257 > 100 µM | SNB-75 > 100 µM | SN12C > 100 µM | 786-0 > 100 µM | NCI/ADR-RES 35.3 µM | MDA-MB-231 23.4 µM | SK-OV-3 83.2 µM | NCI-H23 34.8 µM | U-251 21.4 µM | DU-145 28.4 µM | SK-MEL-2 41.1 µM | NCI-H522 36.3 µM

Cn1c(=O)n2n(c1=O)[C@@H](c1ccccc1)[C@H]2c1ccccc1
inactive: ACHN > 100 µM | NCI-H226 > 100 µM | UO-31 > 100 µM | SF-539 > 100 µM | SF-295 > 100 µM | MOLT-4 > 100 µM | UACC-257 > 100 µM | A498 > 100 µM | SNB-75 31 µM | SN12C > 100 µM | HOP-92 > 100 µM | 786-0 > 100 µM | NCI/ADR-RES > 100 µM | MDA-MB-231 > 100 µM | SK-OV-3 > 100 µM | NCI-H23 65.6 µM | U-251 > 100 µM | SK-MEL-2 > 100 µM

Cc1cc(NS(=O)(=O)c2ccc(Nc3c4ccccc4nc4ccc(C(=O)Nc5ccc(S(=O)(=O)N=C(N)N)cc5)cc34)cc2)no1
inactive: ACHN > 100 µM | NCI-H226 > 100 µM | UO-31 > 100 µM | SF-539 > 100 µM | SF-295 > 100 µM | MOLT-4 > 100 µM | UACC-257 > 100 µM | SNB-75 > 100 µM | SN12C > 100 µM | HOP-92 > 100 µM | 786-0 > 100 µM | NCI/ADR-RES > 100 µM | MDA-MB-231 > 100 µM | SK-OV-3 > 100 µM | NCI-H23 > 100 µM | U-251 > 100 µM | DU-145 > 100 µM | SK-MEL-2 > 100 µM | NCI-H522 > 100 µM

Cc1cccc(/C=N/NC(=S)Nc2ccccc2)n1
inactive: ACHN 2.6 µM | NCI-H226 6.37 µM | UO-31 3.43 µM | SF-539 2.89 µM | SF-295 6.3 µM | MOLT-4 3.27 µM | UACC-257 1.82 µM | A498 15.3 µM | SNB-75 3.67 µM | SN12C 2.8 µM | HOP-92 5.15 µM | 786-0 2.27 µM | NCI/ADR-RES 2.88 µM | SK-OV-3 9.53 µM | NCI-H23 6.18 µM | U-251 4.32 µM | DU-145 4.18 µM | SK-MEL-2 3.2 µM | NCI-H522 1.48 µM

COc1cc2c3c(n(Cc4ccccc4)c(=O)c2cc1OC)-c1ccccc1C3=O
inactive: ACHN > 100 µM | NCI-H226 > 100 µM | UO-31 > 100 µM | SF-539 90.2 µM | SF-295 > 100 µM | MOLT-4 20.5 µM | UACC-257 > 100 µM | SNB-75 32.3 µM | SN12C 57.1 µM | HOP-92 > 100 µM | 786-0 93.5 µM | NCI/ADR-RES > 100 µM | MDA-MB-231 > 100 µM | NCI-H23 > 100 µM | U-251 64 µM | DU-145 > 100 µM | SK-MEL-2 > 100 µM | NCI-H522 > 100 µM

CC(C)(C)OC(=O)N1CCCC1=O
inactive: ACHN > 10 µM | NCI-H226 > 10 µM | UO-31 > 10 µM | SF-539 > 10 µM | SF-295 > 10 µM | MOLT-4 > 10 µM | UACC-257 > 10 µM | A498 > 10 µM | SNB-75 > 10 µM | SN12C > 10 µM | HOP-92 > 10 µM | 786-0 > 10 µM | MDA-MB-231 > 10 µM | SK-OV-3 > 10 µM | NCI-H23 > 10 µM | U-251 > 10 µM | DU-145 > 10 µM | SK-MEL-2 > 10 µM

COc1ccc(C2=Cc3nc2c(-c2ccccc2)c2ccc([nH]2)c(-c2ccccc2)c2nc(c(-c4ccccc4)c4ccc([nH]4)c3-c3ccccc3)C=C2)cc1
inactive: ACHN > 100 µM | NCI-H226 > 100 µM | UO-31 > 100 µM | SF-539 > 100 µM | SF-295 > 100 µM | MOLT-4 > 100 µM | A498 > 100 µM | SNB-75 25.2 µM | SN12C > 100 µM | HOP-92 35.2 µM | 786-0 > 100 µM | MDA-MB-231 > 100 µM | SK-OV-3 > 100 µM | NCI-H23 > 100 µM | U-251 30.5 µM | DU-145 > 100 µM | SK-MEL-2 > 100 µM

— ChEMBL document CHEMBL1201862, “PubChem BioAssay data set” (2004)
